In the supplement of paper PMC10307832:

Legend:
Test in all cases: relative viability (nuclei count vs DMSO), 5 days (fraction); higher = more cells survive
NCI-H1355 = tested on: NCI-H1355
Method in brief: (§1)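 Lung cancer cell lines, seeded in 1536-well plates, were treated the following day by pin tool with a single drug or with five library-drug doses (not always all listed) in √10 steps on top of a fixed anchor-drug dose. Cells were fixed and nuclei stained in one step after 5 days, and nuclei were counted. Relative viability is the nuclei count for treated wells divided by that for vehicle wells, reported as medians of duplicate plates.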

NCI-H1650 = tested on: NCI-H1650
Method in brief: as §1

BEN = tested on: BEN
Method in brief: as §1

CAL-12T = tested on: CAL-12T
Method in brief: as §1

NCI-H1975 = tested on: NCI-H1975
Method in brief: as §1

NCI-H2023 = tested on: NCI-H2023
Method in brief: as §1

HCC-366 = tested on: HCC-366
Method in brief: as §1

SK-LU-1 = tested on: SK-LU-1
Method in brief: as §1

NCI-H1563 = tested on: NCI-H1563
Method in brief: as §1

NCI-H1437 = tested on: NCI-H1437
Method in brief: as §1

LU99A = tested on: LU99A
Method in brief: as §1

NCI-H2085 = tested on: NCI-H2085
Method in brief: as §1

NCI-H838 = tested on: NCI-H838
Method in brief: as §1

COR-L23 = tested on: COR-L23
Method in brief: as §1

NCI-H1651 = tested on: NCI-H1651
Method in brief: as §1

NCI-H441 = tested on: NCI-H441
Method in brief: as §1

NCI-H460 = tested on: NCI-H460
Method in brief: as §1

NCI-H1734 = tested on: NCI-H1734
Method in brief: as §1

LOU-NH91 = tested on: LOU-NH91
Method in brief: as §1

**Q.** Which results are given for `COc1cc2nccc(Oc3ccc(NC(=O)Nc4cc(C)on4)c(Cl)c3)c2cc1OC` [Tivozanib] + CC(C)C[C@H](NC(=O)[C@H](Cc1ccccc1)NC(=O)c1cnccn1)B(O)O [Bortezomib] (partner 0.002 µM)?
**A.** relative viability (NCI-H1355; first compound 0.005 µM): 1.09; relative viability (NCI-H1355; first compound 0.01581 µM): 1.17; relative viability (NCI-H1355; first compound 0.05 µM): 1.26; relative viability (NCI-H1355; first compound 0.5 µM): 1.14; relative viability (NCI-H1650; first compound 0.005 µM): 0.195; relative viability (NCI-H1650; first compound 0.01581 µM): 0.21; relative viability (NCI-H1650; first compound 0.05 µM): 0.209; relative viability (NCI-H1650; first compound 0.1581 µM): 0.264; relative viability (NCI-H1650; first compound 0.5 µM): 0.196; relative viability (BEN; first compound 0.005 µM): 0.703; relative viability (BEN; first compound 0.01581 µM): 0.847; relative viability (BEN; first compound 0.05 µM): 0.873; relative viability (BEN; first compound 0.5 µM): 0.86; relative viability (CAL-12T; first compound 0.005 µM): 0.86; relative viability (CAL-12T; first compound 0.01581 µM): 0.967; relative viability (CAL-12T; first compound 0.05 µM): 1.14; relative viability (CAL-12T; first compound 0.5 µM): 1.03; relative viability (NCI-H1975; first compound 0.005 µM): 0.376; relative viability (NCI-H1975; first compound 0.01581 µM): 0.418; relative viability (NCI-H1975; first compound 0.05 µM): 0.361; relative viability (NCI-H1975; first compound 0.1581 µM): 0.363; relative viability (NCI-H1975; first compound 0.5 µM): 0.257; relative viability (NCI-H2023; first compound 0.005 µM): 0.909; relative viability (NCI-H2023; first compound 0.01581 µM): 1.07; relative viability (NCI-H2023; first compound 0.05 µM): 1; relative viability (NCI-H2023; first compound 0.1581 µM): 0.853; relative viability (NCI-H2023; first compound 0.5 µM): 0.965; relative viability (HCC-366; first compound 0.005 µM): 1.01; relative viability (HCC-366; first compound 0.01581 µM): 1.05; relative viability (HCC-366; first compound 0.05 µM): 1.06; relative viability (HCC-366; first compound 0.1581 µM): 1.05; relative viability (HCC-366; first compound 0.5 µM): 1.05; relative viability (SK-LU-1; first compound 0.005 µM): 0.931; relative viability (SK-LU-1; first compound 0.01581 µM): 1.26; relative viability (SK-LU-1; first compound 0.05 µM): 1.2; relative viability (SK-LU-1; first compound 0.1581 µM): 0.784; relative viability (SK-LU-1; first compound 0.5 µM): 0.907; relative viability (NCI-H1563; first compound 0.005 µM): 0.766; relative viability (NCI-H1563; first compound 0.01581 µM): 0.964; relative viability (NCI-H1563; first compound 0.05 µM): 0.896; relative viability (NCI-H1563; first compound 0.1581 µM): 0.776; relative viability (NCI-H1563; first compound 0.5 µM): 0.829; relative viability (NCI-H1437; first compound 0.005 µM): 0.487; relative viability (NCI-H1437; first compound 0.01581 µM): 0.558; relative viability (NCI-H1437; first compound 0.05 µM): 0.523; relative viability (NCI-H1437; first compound 0.1581 µM): 0.508; relative viability (NCI-H1437; first compound 0.5 µM): 0.399; relative viability (LU99A; first compound 0.005 µM): 1.15; relative viability (LU99A; first compound 0.01581 µM): 1.07; relative viability (LU99A; first compound 0.05 µM): 1.29; relative viability (LU99A; first compound 0.5 µM): 1.06; relative viability (NCI-H2085; first compound 0.005 µM): 1.02; relative viability (NCI-H2085; first compound 0.01581 µM): 1.1; relative viability (NCI-H2085; first compound 0.05 µM): 1.07; relative viability (NCI-H2085; first compound 0.1581 µM): 1.04; relative viability (NCI-H2085; first compound 0.5 µM): 0.846; relative viability (NCI-H838; first compound 0.005 µM): 0.939; relative viability (NCI-H838; first compound 0.01581 µM): 0.877; relative viability (NCI-H838; first compound 0.05 µM): 0.924; relative viability (NCI-H838; first compound 0.5 µM): 0.723; relative viability (COR-L23; first compound 0.005 µM): 0.88; relative viability (COR-L23; first compound 0.01581 µM): 0.931; relative viability (COR-L23; first compound 0.05 µM): 1.13; relative viability (COR-L23; first compound 0.1581 µM): 1.01; relative viability (COR-L23; first compound 0.5 µM): 0.869; relative viability (NCI-H1651; first compound 0.005 µM): 0.895; relative viability (NCI-H1651; first compound 0.01581 µM): 0.985; relative viability (NCI-H1651; first compound 0.05 µM): 1.02; relative viability (NCI-H1651; first compound 0.1581 µM): 0.865; relative viability (NCI-H1651; first compound 0.5 µM): 0.986; relative viability (NCI-H441; first compound 0.005 µM): 0.43; relative viability (NCI-H441; first compound 0.01581 µM): 0.332; relative viability (NCI-H441; first compound 0.05 µM): 0.332; relative viability (NCI-H441; first compound 0.1581 µM): 0.453; relative viability (NCI-H441; first compound 0.5 µM): 0.34; relative viability (NCI-H460; first compound 0.005 µM): 1.13; relative viability (NCI-H460; first compound 0.01581 µM): 1.04; relative viability (NCI-H460; first compound 0.05 µM): 1; relative viability (NCI-H460; first compound 0.1581 µM): 1.12; relative viability (NCI-H460; first compound 0.5 µM): 1.03; relative viability (NCI-H1734; first compound 0.005 µM): 0.757; relative viability (NCI-H1734; first compound 0.01581 µM): 0.904; relative viability (NCI-H1734; first compound 0.05 µM): 1.01; relative viability (NCI-H1734; first compound 0.1581 µM): 0.677; relative viability (NCI-H1734; first compound 0.5 µM): 0.854; relative viability (LOU-NH91; first compound 0.005 µM): 0.5; relative viability (LOU-NH91; first compound 0.01581 µM): 0.489; relative viability (LOU-NH91; first compound 0.05 µM): 0.722; relative viability (LOU-NH91; first compound 0.1581 µM): 0.561; relative viability (LOU-NH91; first compound 0.5 µM): 0.499
